Measured values reported in ChEMBL document CHEMBL5705893, “Targeting the mitotic checkpoint for cancer therapy with NMS-P715, an inhibitor of MPS1 kinase” (Cancer Res, 2010).
Calls of active or inactive are those of the source. The calls are words filed in the database; no cut-off is given here.

How the values were obtained:
[1] = target: Cyclin-dependent kinase 1/cyclin B1 (Homo sapiens, UniProt P06493); experiment: Inhibition of recombinant CDK1/CYCB (unknown origin); type: protein-complex assay
[2] = target: Fibroblast growth factor receptor 1 (Homo sapiens, UniProt P11362); experiment: Inhibition of recombinant FGFR1 (unknown origin)
[3] = target: Insulin receptor (Homo sapiens, UniProt P06213); experiment: Inhibition of recombinant IR (unknown origin)
[4] = target: Tyrosine-protein kinase Lck (Homo sapiens, UniProt P06239); experiment: Inhibition of recombinant LCK (unknown origin)
[5] = Inhibition of recombinant SULU1 (unknown origin); parameters: species or system Homo sapiens
[6] = target: Vascular endothelial growth factor receptor 2 (Homo sapiens, UniProt P35968); experiment: Inhibition of recombinant VEGFR2 (unknown origin)
[7] = system: SW-403; experiment: Antiproliferative activity against human SW403 cells assessed as inhibition of cell growth incubated for 72 hrs by celltiter-glo assay; type: functional, cell-based; details: SW-403, 72 h
[8] = system: HCC 2998; experiment: Antiproliferative activity against human HCC 2998 cells assessed as inhibition of cell growth incubated for 72 hrs by celltiter-glo assay; type: functional, cell-based; details: HCC 2998, 72 h
[9] = system: LoVo; experiment: Antiproliferative activity against human LoVo cells assessed as inhibition of cell growth incubated for 72 hrs by celltiter-glo assay; type: functional, cell-based
[10] = system: HCT-116; experiment: Antiproliferative activity against human HCT-116 cells assessed as inhibition of cell growth incubated for 72 hrs by celltiter-glo assay; type: functional, cell-based; details: HCT-116, 72 h
[11] = system: T98G; experiment: Antiproliferative activity against human T98G cells assessed as inhibition of cell growth incubated for 72 hrs by celltiter-glo assay; type: functional, cell-based
[12] = system: SF-539; experiment: Antiproliferative activity against human SF-539 cells assessed as inhibition of cell growth incubated for 72 hrs by celltiter-glo assay; type: functional, cell-based; details: SF-539, 72 h
[13] = system: MOLT-4; experiment: Antiproliferative activity against human MOLT-4 cells assessed as inhibition of cell growth incubated for 72 hrs by celltiter-glo assay; type: functional, cell-based; details: MOLT-4, 72 h
[14] = system: NCI-H226; experiment: Antiproliferative activity against human NCI-H226 cells assessed as inhibition of cell growth incubated for 72 hrs by celltiter-glo assay; type: functional, cell-based; details: NCI-H226, 72 h
[15] = system: RERF-LC-AI; experiment: Antiproliferative activity against human RERF-LC-AI cells assessed as inhibition of cell growth incubated for 72 hrs by celltiter-glo assay; type: functional, cell-based
[16] = system: SU-DHL-6; experiment: Antiproliferative activity against human SU-DHL-6 cells assessed as inhibition of cell growth incubated for 72 hrs by celltiter-glo assay; type: functional, cell-based; details: SU-DHL-6, 72 h
[17] = Antiproliferative activity against human DERL-7 cells assessed as inhibition of cell growth incubated for 72 hrs by celltiter-glo assay; type: functional, cell-based; details: DERL7, 72 h
[18] = system: UACC-257; experiment: Antiproliferative activity against human UACC-257 cells assessed as inhibition of cell growth incubated for 72 hrs by celltiter-glo assay; type: functional, cell-based; details: UACC-257, 72 h
[19] = system: RPMI-8226; experiment: Antiproliferative activity against human RPMI-8226 cells assessed as inhibition of cell growth incubated for 72 hrs by celltiter-glo assay; type: functional, cell-based; details: RPMI-8226, 72 h
[20] = system: OPM-2; experiment: Antiproliferative activity against human OPM-2 cells assessed as inhibition of cell growth incubated for 72 hrs by celltiter-glo assay; type: functional, cell-based; details: OPM-2, 72 h
[21] = system: U-266; experiment: Antiproliferative activity against human U-266 cells assessed as inhibition of cell growth incubated for 72 hrs by celltiter-glo assay; type: functional, cell-based; details: U-266, 72 h
[22] = system: BJ; experiment: Antiproliferative activity against human BJ cells assessed as inhibition of cell growth incubated for 72 hrs by celltiter-glo assay; type: functional, cell-based
[23] = system: OVCAR-3; experiment: Antiproliferative activity against human OVCAR-3 cells assessed as inhibition of cell growth incubated for 72 hrs by celltiter-glo assay; type: functional, cell-based; details: OVCAR-3, 72 h
[24] = system: CAPAN-1; experiment: Antiproliferative activity against human CAPAN-1 cells assessed as inhibition of cell growth incubated for 72 hrs by celltiter-glo assay; type: functional, cell-based; details: CAPAN-1, 72 h
[25] = system: DU-145; experiment: Antiproliferative activity against human DU-145 cells assessed as inhibition of cell growth incubated for 72 hrs by celltiter-glo assay; type: functional, cell-based; details: DU-145, 72 h
[26] = system: LNCaP; experiment: Antiproliferative activity against human LNCaP cells assessed as inhibition of cell growth incubated for 72 hrs by celltiter-glo assay; type: functional, cell-based
[27] = system: 786-0; experiment: Antiproliferative activity against human 786-0 cells assessed as inhibition of cell growth incubated for 72 hrs by celltiter-glo assay; type: functional, cell-based; details: 786-0, 72 h
[28] = system: A2780; experiment: Induction of apoptosis in human A2780 cells assessed as effect on histone H2AX phosphorylation 0.2 to 1 micromol/L incubated for 2 to 72 hrs by Western blot analysis; type: functional, cell-based; details: dose 0.2-1 µmol/L, time 2-72 hrs
[29] = system: U2OS; experiment: Induction of mitotic arrest in human U2OS cells expressing YFP alpha-tubulin assessed as chromosome misalignment in metaphase incubated for 1 hr by DAPI staining based confocal microscopic analysis; type: functional, cell-based
[30] = system: U2OS; experiment: Induction of mitotic arrest in human U2OS cells expressing YFP alpha-tubulin assessed as chromosome misalignment in anaphase incubated for 1 hr by DAPI staining based confocal microscopic analysis; type: functional, cell-based
[31] = system: A2780; experiment: Cell cycle arrest in human A2780 cells assessed as accumulation of cells at G2/M phase at 0.2 to 1 micromol/L incubated for 24 hrs by FACS/PI staining based flow cytometric analysis; type: functional; details: dose 0.2-1 µmol/L
[32] = Toxicity in Athymic nu-nu nude mouse xenografted with human A2780 cells assessed as body weight loss at 90 mg/kg, po administered once a day for 7 days; type: organism-based; details: in vivo, 168 h, time 7 day
[33] = system: U2OS; experiment: Induction of mitotic arrest in human U2OS cells at 1 micromol/L incubated for 86 hrs by time-lapse microscopic analysis; type: functional, cell-based; details: dose 1.0 µmol/L
[34] = system: BJ; experiment: Inhibition of colony formation in human BJ cells assessed as decrease in colony number at 0.5 to 3 uM incubated for 72 hrs followed by compound washout and measured after 18 days by crystal violet staining based assay; type: functional, cell-based; details: dose 0.5-3 µM
[35] = Half life in Athymic nu-nu mouse at 100 mg/kg, po measured upto 24 hrs by LC-MS/MS analysis; type: ADME, organism-based; details: in vivo
[36] = AUC in Athymic nu-nu mouse at 10 mg/kg, po measured upto 24 hrs by LC-MS/MS analysis; type: ADME, organism-based; details: in vivo
[37] = Oral bioavailability in Athymic nu-nu mouse at 10 mg/kg measured upto 24 hrs by LC-MS/MS analysis; type: ADME, organism-based; details: in vivo
[38] = system: A-375; experiment: Antitumor activity against human A-375 cells xenografted in Athymic nu-nu nude mouse assessed as tumor growth inhibition at 100 mg/kg, po measured after 10 days; type: functional; details: A-375, 240 h, time 10 day, read-out: TGI
[39] = system: A2780; experiment: Antitumor activity against human A2780 cells xenografted in Athymic nu-nu nude mouse assessed as reduction in histone H3 phosphorylation at 100 mg/kg, po administered for 2 days and measured after 6 hrs by Western blot analysis; type: functional, organism-based; details: time 54.0 hrs
[40] = target: Dual specificity protein kinase TTK (Homo sapiens) (UniProt P33981)
Sequence of Dual specificity protein kinase TTK (Homo sapiens) (P33981 whole entry): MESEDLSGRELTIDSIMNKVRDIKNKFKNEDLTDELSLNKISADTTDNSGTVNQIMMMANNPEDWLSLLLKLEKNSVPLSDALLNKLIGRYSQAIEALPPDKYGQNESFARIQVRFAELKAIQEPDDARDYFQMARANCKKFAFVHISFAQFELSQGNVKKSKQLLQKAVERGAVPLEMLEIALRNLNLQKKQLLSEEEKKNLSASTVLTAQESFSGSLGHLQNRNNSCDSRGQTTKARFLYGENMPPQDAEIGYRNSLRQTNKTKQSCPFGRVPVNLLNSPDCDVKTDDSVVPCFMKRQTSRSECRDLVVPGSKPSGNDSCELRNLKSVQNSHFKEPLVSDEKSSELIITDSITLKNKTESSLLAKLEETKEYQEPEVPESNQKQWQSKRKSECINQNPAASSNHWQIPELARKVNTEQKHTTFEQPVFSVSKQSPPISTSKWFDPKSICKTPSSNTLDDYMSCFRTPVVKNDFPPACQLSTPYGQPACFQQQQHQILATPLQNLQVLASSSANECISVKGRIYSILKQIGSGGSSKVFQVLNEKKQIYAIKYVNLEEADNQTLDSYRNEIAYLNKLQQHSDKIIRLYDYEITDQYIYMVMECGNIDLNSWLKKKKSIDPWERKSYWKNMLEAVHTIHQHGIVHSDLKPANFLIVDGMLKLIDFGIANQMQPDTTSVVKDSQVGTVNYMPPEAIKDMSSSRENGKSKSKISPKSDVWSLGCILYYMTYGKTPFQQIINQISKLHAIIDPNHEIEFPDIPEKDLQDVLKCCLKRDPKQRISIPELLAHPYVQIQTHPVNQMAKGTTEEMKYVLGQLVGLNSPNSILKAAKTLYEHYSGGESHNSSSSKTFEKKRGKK
Description: Binding affinity to recombinant human MPS1 assessed as half life

Sequence of Vascular endothelial growth factor receptor 2 (P35968 whole entry): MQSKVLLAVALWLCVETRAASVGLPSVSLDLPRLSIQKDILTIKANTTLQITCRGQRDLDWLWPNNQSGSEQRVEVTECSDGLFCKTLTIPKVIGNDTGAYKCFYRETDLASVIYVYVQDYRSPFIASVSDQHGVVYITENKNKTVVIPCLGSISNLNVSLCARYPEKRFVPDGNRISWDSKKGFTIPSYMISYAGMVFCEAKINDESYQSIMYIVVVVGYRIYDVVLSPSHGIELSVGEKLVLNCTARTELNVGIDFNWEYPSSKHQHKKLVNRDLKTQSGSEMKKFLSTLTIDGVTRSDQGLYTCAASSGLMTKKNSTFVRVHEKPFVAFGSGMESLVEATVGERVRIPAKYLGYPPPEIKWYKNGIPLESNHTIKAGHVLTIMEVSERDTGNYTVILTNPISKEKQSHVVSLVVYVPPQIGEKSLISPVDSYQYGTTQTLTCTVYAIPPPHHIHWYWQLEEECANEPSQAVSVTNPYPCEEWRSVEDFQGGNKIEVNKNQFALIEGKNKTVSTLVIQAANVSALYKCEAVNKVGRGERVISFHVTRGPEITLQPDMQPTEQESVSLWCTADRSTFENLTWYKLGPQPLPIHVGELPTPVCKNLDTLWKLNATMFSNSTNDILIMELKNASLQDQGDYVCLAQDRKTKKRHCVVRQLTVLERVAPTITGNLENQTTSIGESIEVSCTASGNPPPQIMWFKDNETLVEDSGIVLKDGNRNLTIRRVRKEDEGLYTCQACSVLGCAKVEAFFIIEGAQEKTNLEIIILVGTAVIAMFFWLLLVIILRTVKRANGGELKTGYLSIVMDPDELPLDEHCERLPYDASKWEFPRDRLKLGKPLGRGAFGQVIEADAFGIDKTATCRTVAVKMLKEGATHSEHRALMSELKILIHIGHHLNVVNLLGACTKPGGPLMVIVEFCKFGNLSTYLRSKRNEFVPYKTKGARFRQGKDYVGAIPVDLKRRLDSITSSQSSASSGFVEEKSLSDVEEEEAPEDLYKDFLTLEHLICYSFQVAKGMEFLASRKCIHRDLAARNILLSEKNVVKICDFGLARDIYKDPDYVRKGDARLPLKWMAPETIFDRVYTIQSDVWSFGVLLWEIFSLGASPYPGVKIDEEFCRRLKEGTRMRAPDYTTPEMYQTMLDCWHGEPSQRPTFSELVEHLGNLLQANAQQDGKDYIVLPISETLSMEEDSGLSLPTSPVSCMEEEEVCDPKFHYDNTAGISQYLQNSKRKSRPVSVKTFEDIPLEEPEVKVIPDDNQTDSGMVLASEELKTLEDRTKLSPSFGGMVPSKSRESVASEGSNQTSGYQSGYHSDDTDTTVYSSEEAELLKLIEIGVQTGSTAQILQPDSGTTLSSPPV
Sequence of Tyrosine-protein kinase Lck (P06239 whole entry): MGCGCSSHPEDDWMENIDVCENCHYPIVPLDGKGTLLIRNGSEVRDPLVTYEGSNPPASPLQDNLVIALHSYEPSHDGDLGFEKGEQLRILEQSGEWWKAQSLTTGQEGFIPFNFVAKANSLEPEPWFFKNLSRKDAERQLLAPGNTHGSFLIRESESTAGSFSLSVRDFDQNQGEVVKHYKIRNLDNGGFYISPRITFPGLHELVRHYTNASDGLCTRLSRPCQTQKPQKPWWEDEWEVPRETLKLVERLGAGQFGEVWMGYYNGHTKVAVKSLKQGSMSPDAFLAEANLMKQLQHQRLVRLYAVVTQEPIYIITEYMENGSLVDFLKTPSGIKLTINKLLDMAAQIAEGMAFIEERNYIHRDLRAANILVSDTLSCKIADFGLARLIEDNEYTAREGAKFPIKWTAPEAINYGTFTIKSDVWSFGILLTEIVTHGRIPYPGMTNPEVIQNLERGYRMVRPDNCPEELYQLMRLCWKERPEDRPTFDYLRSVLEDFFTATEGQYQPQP
Sequence of Insulin receptor (P06213 28-758 limits assumed): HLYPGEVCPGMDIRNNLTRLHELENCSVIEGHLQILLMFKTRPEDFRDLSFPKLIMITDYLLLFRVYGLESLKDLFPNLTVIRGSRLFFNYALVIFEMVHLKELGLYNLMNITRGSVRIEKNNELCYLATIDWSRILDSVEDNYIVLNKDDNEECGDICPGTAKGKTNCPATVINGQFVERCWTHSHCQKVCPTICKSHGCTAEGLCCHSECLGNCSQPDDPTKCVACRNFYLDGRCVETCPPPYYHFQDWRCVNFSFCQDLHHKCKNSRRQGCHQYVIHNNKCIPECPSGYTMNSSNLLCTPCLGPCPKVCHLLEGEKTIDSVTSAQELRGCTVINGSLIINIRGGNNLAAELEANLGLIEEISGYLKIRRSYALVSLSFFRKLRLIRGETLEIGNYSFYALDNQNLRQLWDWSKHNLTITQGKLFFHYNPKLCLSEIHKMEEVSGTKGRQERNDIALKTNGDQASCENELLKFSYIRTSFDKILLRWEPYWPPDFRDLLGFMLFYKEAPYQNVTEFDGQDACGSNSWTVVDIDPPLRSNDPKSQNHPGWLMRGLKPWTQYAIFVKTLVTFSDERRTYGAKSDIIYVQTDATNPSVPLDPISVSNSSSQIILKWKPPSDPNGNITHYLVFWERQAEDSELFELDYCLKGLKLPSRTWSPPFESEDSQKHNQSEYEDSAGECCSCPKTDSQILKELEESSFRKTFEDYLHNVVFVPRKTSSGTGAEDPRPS
Sequence of Insulin receptor (P06213 763-1382 limits assumed): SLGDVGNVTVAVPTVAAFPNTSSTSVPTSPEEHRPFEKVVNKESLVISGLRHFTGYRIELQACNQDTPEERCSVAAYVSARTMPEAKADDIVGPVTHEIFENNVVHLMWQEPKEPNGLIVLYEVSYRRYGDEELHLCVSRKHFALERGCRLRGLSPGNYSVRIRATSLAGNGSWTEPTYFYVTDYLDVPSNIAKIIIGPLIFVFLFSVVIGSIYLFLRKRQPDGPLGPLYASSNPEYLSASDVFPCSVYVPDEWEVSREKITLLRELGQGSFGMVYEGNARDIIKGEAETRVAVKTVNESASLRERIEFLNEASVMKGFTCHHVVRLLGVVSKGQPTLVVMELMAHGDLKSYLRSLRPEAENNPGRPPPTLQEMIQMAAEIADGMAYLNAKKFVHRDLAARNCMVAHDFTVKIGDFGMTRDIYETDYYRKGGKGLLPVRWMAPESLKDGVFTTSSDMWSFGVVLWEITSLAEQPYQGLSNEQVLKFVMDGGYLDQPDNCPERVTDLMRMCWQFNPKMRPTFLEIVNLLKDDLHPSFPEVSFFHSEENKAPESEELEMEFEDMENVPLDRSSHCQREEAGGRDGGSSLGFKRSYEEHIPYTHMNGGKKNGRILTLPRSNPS
Sequence of Fibroblast growth factor receptor 1 (P11362 whole entry): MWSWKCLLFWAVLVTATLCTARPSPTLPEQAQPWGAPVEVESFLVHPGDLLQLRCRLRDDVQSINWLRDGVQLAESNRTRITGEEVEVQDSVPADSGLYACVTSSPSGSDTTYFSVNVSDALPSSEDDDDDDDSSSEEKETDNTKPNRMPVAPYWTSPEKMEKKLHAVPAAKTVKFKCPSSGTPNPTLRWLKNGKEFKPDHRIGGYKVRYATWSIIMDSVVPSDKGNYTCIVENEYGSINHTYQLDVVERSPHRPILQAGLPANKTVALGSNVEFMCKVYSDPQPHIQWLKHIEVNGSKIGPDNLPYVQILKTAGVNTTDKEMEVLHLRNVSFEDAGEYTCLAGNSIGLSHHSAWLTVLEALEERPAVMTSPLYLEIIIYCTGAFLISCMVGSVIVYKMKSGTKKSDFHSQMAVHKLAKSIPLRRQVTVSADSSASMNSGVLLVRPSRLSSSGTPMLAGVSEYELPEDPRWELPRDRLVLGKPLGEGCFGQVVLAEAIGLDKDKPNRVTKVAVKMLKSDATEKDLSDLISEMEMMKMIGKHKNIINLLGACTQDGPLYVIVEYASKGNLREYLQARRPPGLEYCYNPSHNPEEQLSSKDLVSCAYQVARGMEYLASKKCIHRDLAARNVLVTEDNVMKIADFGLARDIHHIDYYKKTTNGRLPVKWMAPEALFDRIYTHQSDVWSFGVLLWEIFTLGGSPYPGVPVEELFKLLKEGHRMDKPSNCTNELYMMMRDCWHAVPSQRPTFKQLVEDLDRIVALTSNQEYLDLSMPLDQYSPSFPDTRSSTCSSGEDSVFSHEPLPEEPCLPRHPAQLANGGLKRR

CCc1cccc(CC)c1NC(=O)c1nn(C)c2c1CCc1cnc(Nc3ccc(C(=O)NC4CCN(C)CC4)cc3OC(F)(F)F)nc1-2
IC50 [1]: > 10000 nM
IC50 [2]: > 10000 nM
IC50 [3]: > 10000 nM
IC50 [4]: > 10000 nM
IC50 [5]: > 10000 nM
IC50 [6]: > 10000 nM
IC50 [7]: 1570 nM
IC50 [8]: 1810 nM
IC50 [9]: 1870 nM
IC50 [10]: 2040 nM
IC50 [11]: 203 nM
IC50 [12]: 807 nM
IC50 [13]: 1040 nM
IC50 [14]: 2010 nM
IC50 [15]: 2070 nM
IC50 [16]: 10000 nM
IC50 [17]: 8560 nM
IC50 [18]: 1870 nM
IC50 [19]: 1480 nM
IC50 [20]: 2310 nM
IC50 [21]: 5930 nM
IC50 [22]: 5470 nM
IC50 [23]: 6200 nM
IC50 [24]: 5220 nM
IC50 [25]: 1930 nM
IC50 [26]: 3070 nM
IC50 [27]: 917 nM
Activity [28]: Active
Activity [29]: Active
Activity [30]: Active
Activity [31]: Active
Activity [32]: Non-Toxic
Activity [33]: Active
Activity [34]: Active
half-life [35]: 16.8 h
AUC at 24 h [36]: 8.66 µM·h
bioavailability [37]: 37.9%
inhibition in vivo at 100 mg/kg [38]: 43%
Activity [39]: Active
T1/2 [40]: 9.76 min
